Laboratory results reported in patent US10881642B2, “Autophagy enhancer and use thereof” (Industry-Academic Cooperation Foundation, Yonsei University, priority 2016, dated 2021).

System: primary peritoneal macrophages
Assay: IL-1β ELISA / inflammasome activation in macrophages
Assay type: cell-based, C57BL/6 mice
Experimental: FIG. 5 is the results indicating the present compound MSL reduces the activation of inflammasome and enhances the function of mitochondria. FIG. 5A is the results of the experiment in which primary peritoneal macrophages were isolated and treated with palmitic acid, LPS and MSL and then the concentration of IL-beta was measured from the supernatant using ELISA. Error bars, S.D. **, P<0.01; ***, P<0.001, two-way ANOVA. […]
Screening of autophagy enhancer. […] Firefly luciferase was determined after mixing 5 μl of lysate with 25 μl of Luciferase Assay Reagent II. Renilla luciferase was then determined after further addition of 20 ul of Stop&Glo Reagent. […] Cytotoxicity was determined by the measurement of LDH release in cell culture media using the LDH kit (Roche), according to the protocol from the manufacturer. […] Imaging and image quantification. […] Formation of acidic vesicular organelles was quantitated by staining the cells with acridine orange (Invitrogen, 5 ug/ml, 10 min). […] Cells or tissues were solubilized in lysis buffer supplemented with protease and phosphatase inhibitors and protein concentration was measured by the Bradford method. Ten to 30 micrograms were loaded on 4-12% Bis-Tris gel (NUPAGE, Invitrogen) or 8-15% SDS-PAGE, transferred to PVDF membranes and analyzed by western blot using the ECL method (Pierce). […]

With `CSc1oc(-c2ccccc2)nc1S(=O)(=O)c1ccc(F)cc1` [MSL] the “release of IL-1β measured by ELISA” value (PA in combination with LPS) was “significantly decreased” and the “caspase-1 cleavage and IL-1 β maturation (Western blot)” value (data not shown) was “decreased”.
